Columns and labels:
[1] = test system: Kunming male mice; experiment: acetic acid writhing test on mice; type: in vivo, mouse; conditions: for Number of writhing times: within 30 min
[2] = test system: mice; experiment: xylene-induced mouse ear swelling test; type: in vivo; conditions: 10 mg/Kg
Procedure: Fifty healthy adult male mice were randomly divided into 5 groups. […] […] One hour after administration, 20 μL of xylene was evenly applied to both sides of the right ear of mouse, and xylene was not applied to the left ear as self control. One hour later, the two ears were cut off, and two ear pieces were removed from the same parts of the two ears with a 6 mm hole punch. The two ear pieces were weighed on a precision balance, and the swelling degree (right ear piece weight-left ear piece weight) and swelling inhibition rate (right ear piece weight-left ear piece weight)/left ear piece weight×100%) were calculated.

[3] = test system: SD rats; experiment: carrageenan-induced rat paw swelling test; type: in vivo; conditions: 4 mg/Kg positive control
Procedure: Eighteen healthy adult male mice were randomly divided into 3 groups. FAPM (100 mg/kg) was administered intraperitoneally once a day for 3 consecutive days. The control group was injected with the same amount of solvent, and the positive drug dexamethasone (4 mg/kg) was administered intragastrically once a day for 3 consecutive days. Thirty minutes after the last administration, 0.1 mL of 1% carrageenan was injected subcutaneously into the right hind paw of each rat, and the plantar thickness was measured before injection and 1, 2 and 3 hours after injection. Three hours later, the rats were sacrificed by dislocation. The feet were cut off from the knee joints and weighed on a precision balance. The swelling degree of the paw (right foot weight-left foot weight) was calculated.

[4] = test system: Kunming female mice; experiment: oxytocin-induced dysmenorrhea model in mice (diethylstilbestrol sensitization); type: in vivo, mouse; conditions: Table 9, positive control 50 mg/Kg intraperitoneal
Procedure: (§1) A mouse dysmenorrhea model was established with reference to Yang L., Cao Z., Yu B. & Chai C. An in vivo mouse model of primary dysmenorrhea. Exp Anim. 2015, August 64, 295-303. Adult healthy Kunming female mice were randomly grouped, 10 mice in each group. Experimental mice were intragastrically given diethylstilbestrol 0.2 mg daily for 12 days. Different kinds and dosages of the inhibitors of the cytochrome bc1 complex were given intraperitoneally or intragastrically 30 min after the last administration. Indometacin (50 mg/kg) was injected intraperitoneally as positive control, PGF2α (1.3 mg/kg) or oxytocin (20 U/kg) was injected intraperitoneally 1 h later, and the writhe starting time (reaction latency) and the number of writhing times within 30 min were observed and recorded.

[5] = test system: Kunming female mice; experiment: PGF2α-induced dysmenorrhea model in mice (diethylstilbestrol sensitization); type: in vivo, mouse; conditions: for Number of writhing times: within 30 min
Procedure: as §1

[6] = Table 5, positive control 50 mg/Kg intraperitoneal
[7] = Table 8, positive control 50 mg/Kg intraperitoneal

For `COc1ccc2c(c1)c(CC(=O)O)c(C)n2C(=O)c1ccc(Cl)cc1` [Indomethacin, reference compound], the Writhe starting time ([1]; Table 3, 50 mg/Kg intraperitoneal) was 4.6 ± 0.8 min, the “Number of writhing times” value ([1]; Table 3, 50 mg/Kg intraperitoneal, 1 hour before acetic acid) was 15.8 ± 3.9 and the Writhe starting time [1, 6] was 3.4 ± 1.0 min. The “Number of writhing times” value [1, 6] was 24.8 ± 4.8, the “ear swelling degree versus control group” value [2] was “no statistical difference” and the Ear swelling ([2]; positive control intraperitoneal, 1 hour after xylene) was 12 ± 3.74 mg. The “Paw swelling thickness 1 h” value ([3]; 1 h after carrageenan) was 5.52 ± 0.39 mm, the “Paw swelling thickness 2 h” value ([3]; 2 h after carrageenan) was 5.65 ± 0.39 mm and the “Paw swelling thickness 3 h” value ([3]; 3 h after carrageenan) was 6.11 ± 0.15 mm. For the same molecule, the “Paw swelling (right foot weight-left foot weight)” value ([3]; 3 hours after carrageenan) was 0.518 ± 0.05 g, the Writhe starting time [4] was 3.5 ± 1.0 and the “Number of writhing times” value ([4]; oxytocin (20 U/kg), within 30 min) was 14.7 ± 1.4. For the same molecule, the Writhe starting time ([5]; Table 7, 50 mg/Kg intraperitoneal) was 1.89 ± 0.6 min, the “Number of writhing times” value ([5]; Table 7, 50 mg/Kg intraperitoneal, 1 h before PGF2α (1.3 mg/kg)) was 15.0 ± 2.1 and the Writhe starting time [5, 7] was 2.1 ± 1.2 min. The “Number of writhing times” value [5, 7] was 16.8 ± 2.5.
